Source: US20210355104A1, “ADENOSINE RECEPTOR BINDING COMPOUNDS” (Nikang Therapeuticsm Inc., priority 2018, published 2021)
Values joined by “and” are separate entries in the source; they are usually repeats but may differ in a detail not shown here. Equal values may be shown once.

Assays:
[1] = tested on: p-CREB (phosphorylated cAMP response-element binding protein) in human whole blood; test: p-CREB assay in human whole blood by flow cytometry (NECA stimulation, CD4 staining); assay type: cell-based; conditions: Homo sapiens
Summary of the method: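 Fresh human whole blood preincubated 1 h at room temperature with compounds (11-point 1:3 series from 30 uM) plus adenosine deaminase, then stimulated 30 min with NECA and Rolipram (10× additions of 50 uM stocks). Cells lysed/fixed, permeabilised, stained for p-CREB and CD4, read by flow cytometry.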

[2] = molecular target: T1, Adenosine A2A receptor (Homo sapiens, UniProt P29274); test: cAMP assay in 293A cells stably expressing the adenosine A2A receptor (CGS21680 stimulation, HTRF); assay type: cell-based; parameters: expressed in transfected cells; host or cells: 293A cells (Invitrogen, Cat# R705-07) infected with A2A-expressing lentivirus (custom packaged by Biosettia), puromycin selected; conditions: 293A-A2AR cells, 0.1% BSA
T1 sequence (P29274 whole entry): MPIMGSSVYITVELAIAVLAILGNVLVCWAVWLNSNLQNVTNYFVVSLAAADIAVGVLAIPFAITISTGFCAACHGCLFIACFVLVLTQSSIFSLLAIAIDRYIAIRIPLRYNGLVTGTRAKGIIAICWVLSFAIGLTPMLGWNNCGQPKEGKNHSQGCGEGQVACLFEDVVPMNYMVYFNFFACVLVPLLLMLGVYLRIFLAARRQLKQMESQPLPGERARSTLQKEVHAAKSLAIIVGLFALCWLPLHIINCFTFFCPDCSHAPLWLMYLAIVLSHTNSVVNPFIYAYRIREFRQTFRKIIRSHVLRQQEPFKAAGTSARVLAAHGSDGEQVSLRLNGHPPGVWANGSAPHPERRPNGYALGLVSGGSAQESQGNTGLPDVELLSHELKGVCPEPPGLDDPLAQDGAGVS

[3] = molecular target: T1, Adenosine A2A receptor; test: Adenosine A2A receptor competitive binding assay (Tag-lite HTRF); conditions: Tag-lite adenosine A2A receptor ligand binding
Summary of the method: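 Tag-lite HTRF competition: donor-labelled cells expressing human A2A were mixed with serially diluted compounds (DMSO 0.6% in dilutions) and red fluorescent A2A antagonist ligand (60 nM stock). Incubated 2 h at room temperature before HTRF readout.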

[4] = values separated by / are repeat determinations
[5] = 8 nM CGS, values separated by / are repeat determinations, read-out: cAMP (nM) 0.1% BSA, 8 nM CGS
[6] = 1 uM CGS, values separated by / are repeat determinations, read-out: cAMP (nM) 0.1% BSA, 1 uM CGS
[7] = 2 h room temperature, values separated by / are repeat determinations
[8] = 8 nM CGS, read-out: cAMP (nM) 0.1% BSA, 8 nM CGS
[9] = 1 uM CGS, read-out: cAMP (nM) 0.1% BSA, 1 uM CGS

Row | Compound | IC50 [1, 4] | IC50 [2, 5] | IC50 [2, 6] | IC50 [3, 7] | IC50 [1] | IC50 [2, 8] | IC50 ([3]; HTRF) | IC50 [2, 9]
1 | Cc1cc(-c2c(OCc3nccn3CCC(=O)O)nc(N)nc2-c2ccc(F)cc2)cc(C(F)F)n1 [Example 204, 3-(2-(((2-amino-5-(2-(difluoromethyl)-6-methylpyridin-4-yl)-6-(4-fluorophenyl)pyrimidin-4-yl)oxy)methyl)-1H-imidazol-1-yl)propanoic acid] |  |  |  |  | 456 nM | 24 nM | 13 nM | 
2 | CCc1c(COc2nc(N)nc(-c3ccc(F)cc3)c2-c2cc(C)nc(C(F)F)c2)nnn1C [Example 136, 5-(2-(difluoromethyl)-6-methylpyridin-4-yl)-4-((5-ethyl-1-methyl-1H-1,2,3-triazol-4-yl)methoxy)-6-(4-fluorophenyl)pyrimidin-2-amine] | 15.8 nM | 2.3 nM | 29 nM and 27 nM | 0.6 nM and 1.1 nM |  |  |  | 
3 | Cc1cc(-c2c(OCc3nccn3C(C)CO)nc(N)nc2-c2ccc(F)cc2)cc(C(F)F)n1 (centres unmarked) [Example 209, 2-(2-(((2-amino-5-(2-(difluoromethyl)-6-methylpyridin-4-yl)-6-(4-fluorophenyl)pyrimidin-4-yl)oxy)methyl)-1H-imidazol-1-yl)propan-1-ol] |  |  |  |  | 125 nM | 1.6 nM and 2.4 nM | 1.9 nM and 4.2 nM | 84 nM and 97 nM
4 | Cc1cc(-c2c(OCCN(C)c3cccc(OCCO)n3)nc(N)nc2-c2ccc(F)cc2)cc(C(F)F)n1 [Example 154, 2-((6-((2-((2-amino-5-(2-(difluoromethyl)-6-methylpyridin-4-yl)-6-(4-fluorophenyl)pyrimidin-4-yl)oxy)ethyl)(methyl)amino)pyridin-2-yl)oxy)ethan-1-ol] | 41.6 nM | 1.3 nM | 11 nM | 1.4 nM and 4.2 nM |  |  |  | 
5 | Cc1cc(-c2c(OCC3CCOCC3)nc(N)nc2-c2ccc(F)cc2)cc(C(F)F)n1 [Example 55, 5-(2-(difluoromethyl)-6-methylpyridin-4-yl)-4-(4-fluorophenyl)-6-((tetrahydro-2H-pyran-4-yl)methoxy)pyrimidin-2-amine] | 93 nM | 0.54 nM and 0.49 nM | 96 nM | 0.7 nM and 5.4 nM |  |  |  | 
6 | CCc1c(COc2nc(N)nc(-c3ccc(F)cc3)c2-c2cc(C)nc(C(F)F)c2)nnn1CC [Example 135, 4-((1,5-diethyl-1H-1,2,3-triazol-4-yl)methoxy)-5-(2-(difluoromethyl)-6-methylpyridin-4-yl)-6-(4-fluorophenyl)pyrimidin-2-amine] | 93.2 nM | 3.1 nM and 2.6 nM | 77 nM | 1.2 nM and 4.3 nM |  |  |  | 
7 | Cc1cc(-c2c(OCc3nccn3CCCC(=O)O)nc(N)nc2-c2ccc(F)cc2)cc(C(F)F)n1 [Example 219, 4-(2-(((2-amino-5-(2-(difluoromethyl)-6-methylpyridin-4-yl)-6-(4-fluorophenyl)pyrimidin-4-yl)oxy)methyl)-1H-imidazol-1-yl)butanoic acid] |  |  |  |  | 170 nM |  | 9 nM | 

Second part, the molecule after the results:

Row | IC50 [1, 4] | IC50 [2, 5] | IC50 [2, 6] | IC50 [3, 7] | IC50 [1] | IC50 [2, 8] | IC50 ([3]; HTRF) | IC50 [2, 9] | Compound
8 | 478 nM | 1.5 nM and 1.4 nM | 55 nM and 139 nM | 3.9 nM |  |  |  |  | CNS(=O)(=O)NCCOc1nc(N)nc(-c2ccccc2)c1-c1cc(C)nc(C(F)(F)F)c1 [Example 121]
9 | 14 nM |  | 12 nM | 0.24 nM |  |  |  |  | Cc1cc(-c2c(OCc3ccccn3)nc(N)nc2-c2ccc(F)cc2)cc(C(F)F)n1 [Example 95, 5-(2-(difluoromethyl)-6-methylpyridin-4-yl)-4-(4-fluorophenyl)-6-(pyridin-2-ylmethoxy)pyrimidin-2-amine]
10 | 1780 nM | 2.2 nM and 1.1 nM |  | 4.1 nM |  |  |  |  | Cc1cc(-c2c(OCCNS(N)(=O)=O)nc(N)nc2-c2ccc(F)cc2)cc(C(F)(F)F)n1 [Example 111]
11 | 63 nM | 0.88 nM and 0.69 nM | 35 nM and 53 nM | 1.8 nM |  |  |  |  | Cc1cc(-c2c(OCCn3ccccc3=O)nc(N)nc2-c2ccc(F)cc2)cc(C(F)F)n1 [Example 122, 1-(2-((2-amino-5-(2-(difluoromethyl)-6-methylpyridin-4-yl)-6-(4-fluorophenyl)pyrimidin-4-yl)oxy)ethyl)pyridin-2(1H)-one]
12 | 469 nM |  |  | 4.2 nM |  |  |  |  | COCC(O)COc1nc(N)nc(-c2ccc(F)cc2)c1-c1cc(C)nc(C(F)F)c1 (centres unmarked) [Example 85, 1-((2-amino-5-(2-(difluoromethyl)-6-methylpyridin-4-yl)-6-(4-fluorophenyl)pyrimidin-4-yl)oxy)-3-methoxypropan-2-ol]
13 | 11.2 nM |  | 1 nM | 0.51 nM |  |  |  |  | Cc1cc(-c2c(OCCN(C)c3ccccn3)nc(N)nc2-c2ccc(F)cc2)cc(C(F)F)n1 [Example 79, 5-(2-(difluoromethyl)-6-methylpyridin-4-yl)-4-(4-fluorophenyl)-6-(2-(methyl(pyridin-2-yl)amino)ethoxy)pyrimidin-2-amine]
14 |  |  |  |  | 15.1 nM |  | 18.1 nM | 136 nM and 200 nM and 176 nM | Cc1cc(-c2c(OCc3cccc(C(C)(C)O)n3)nc(N)nc2-c2ccc(F)cc2)cc(C(F)F)n1 [Example 225]
